Reference: patent US20180305334A1, “COMPOUNDS, COMPOSITIONS AND METHODS OF USE AGAINST STRESS GRANULES” (Aquinnah Pharmaceuticals, Inc., priority 2015, published 2018)
pIC50: −log10 of the molar value.

Tested on: TDP-43 aggregation in PC12 cells stably expressing TDP-43^Q331K::eGFP
Assay: In vitro efficacy assay, TDP-43 aggregation concentration-response
Assay type: cell-based
Conditions: Rattus norvegicus, PC-12, inhibition of TDP-43 aggregation; PC12 TDP-43^Q331K::eGFP, 1 hour pre-treatment, 15 μM sodium arsenite for 23 hours; 10-point dose response
Experimental: Exemplary compounds of the invention were evaluated for efficacy in inhibiting TDP-43 inclusions using a concentration-response assay. Briefly, PC12 cells stably expressing a GFP-tagged mutant form of TDP-43 (TDP-43^Q331K::eGFP) were pre-treated for 1 hour with exemplary compounds and stressed with 15 μM sodium arsenite for 23 hours to induce TDP-43 aggregation. The inhibitory effect on TDP-43 aggregation was measured using fluorescence microscopy. The ratio of cells with TDP-43 aggregates was calculated based on the total number of cells with detectable GFP expression.

| Structure (SMILES) | pIC50 |
| --- | --- |
| CCN(CC1CCCN(Cc2ccc(OC)cc2)C1)C(=O)c1cc2c(Cl)cc(Cl)cc2[nH]1 (stereo not shown) [Compound 154] | 5.40 to 5.82 |
| CCN(CC1CCCN(Cc2ccc(Cl)cc2)C1)C(=O)c1cc2cc(OC)c(OC)cc2[nH]1 (stereo not shown) [Compound 152] | < 5.00 |
| CCN(CC1CCN(C(C)(C)Cc2cccc(F)c2OC)CC1)C(=O)c1cc2ccccc2[nH]1 [Compound 364] | > 5.82 |
| CCN(CC1CCCN(CCc2cccc(OC)c2)C1)C(=O)c1cc2c([nH]1)CCCC2 (stereo not shown) [Compound 243] | > 5.82 |
| CCN(CC1CCN(C(C)(C)c2ccc(OC)cc2)CC1)C(=O)c1cc2ccccc2[nH]1 [Compound 358] | > 5.82 |
| COc1cccc(CN2CCC(CN(C(=O)c3cc4ccccc4[nH]3)C(C)C)CC2)c1 [compound 279] | < 5.00 |
| COc1ccc(CN2CCC(CNC(=O)c3cc4ccccc4[nH]3)CC2)cc1 [compound 274] | < 5.00 |
| COc1cccc(CN2CCC(CNC(=O)c3cc4ccccc4[nH]3)CC2)c1 [compound 292] | < 5.00 |
| O=C(NCC1CCNCC1)c1cc2ccccc2[nH]1 [Compound 264] | 5.40 to 5.82 |
| CCN(CC1CCNCC1)C(=O)c1cc2cc(OC(F)F)ccc2[nH]1 [compound 402] | < 5.00 |
| COc1cccc(CN2CCC(CN(C)C(=O)c3cc4ccccc4[nH]3)CC2)c1 [compound 257] | 5.15 to 5.40 |
| CCN(CC1CCCNC1)C(=O)c1cc2c(F)cccc2[nH]1 (stereo not shown) [compound 421] | 5.15 to 5.40 |
| O=C(NCC1CCN(Cc2ccc(Cl)cc2)CC1)c1cc2ccccc2[nH]1 [compound 275] | < 5.00 |
| COc1ccc(C(=O)N2CCC(CNC(=O)c3cc4ccccc4[nH]3)CC2)cc1 [Compound 321] | > 5.82 |
| CCN(CC1CCN(C2CCc3ccc(OC)cc3C2)CC1)C(=O)c1cc2ccccc2[nH]1 (stereo not shown) [Compound 329] | > 5.82 |
| COc1ccc(CN2CCC(CN(C(=O)c3cc4ccccc4[nH]3)C(C)C)CC2)cc1 [compound 265] | > 5.82 |
| CCN(CC1CCN(C(C)(C)Cc2cccc(OC)c2)CC1)C(=O)c1cc2ncccc2[nH]1 [Compound 363] | > 5.82 |
| CCN(CC1CCN(Cc2ccc(Cl)cc2)CC1)C(=O)c1cc2cc(OC)ccc2[nH]1 [compound 403] | 5.40 to 5.82 |
| CCN(CC1CCCN(Cc2ccc(Cl)cc2)C1)C(=O)c1cc2cc(F)c(F)cc2[nH]1 (stereo not shown) [Compound 172] | 5.40 to 5.82 |
| COc1ccc(CC(=O)N2CCC(CNC(=O)c3cc4ccccc4[nH]3)CC2)cc1 [Compound 323] | > 5.82 |

| Structure (SMILES) | pIC50 |
| --- | --- |
| COc1ccc(S(=O)(=O)N2CCC(CNC(=O)c3cc4ccccc4[nH]3)CC2)cc1 [Compound 325] | < 5.00 |
| COc1ccccc1CN1CCC(CN(C(=O)c2cc3ccccc3[nH]2)C(C)C)CC1 [compound 282] | < 5.00 |
| CC(C)(Cc1cccc(F)c1)N1CCC(CN(CC(F)(F)F)C(=O)c2cc3ccccc3[nH]2)CC1 [Compound 353] | > 5.82 |
| CCN(CC1CCN(C(C)(C)CC2CCOCC2)CC1)C(=O)c1cc2ccccc2[nH]1 [Compound 365] | 5.40 to 5.82 |
| CCN(CC1CCCN(Cc2ccc(OC)cc2)C1)C(=O)c1cc2c(F)cccc2[nH]1 (stereo not shown) [Compound 166] | < 5.00 |
| CCN(CC1CCCN(Cc2ccc(OC)cc2)C1)C(=O)c1cc2cc(F)ccc2[nH]1 (stereo not shown) [Compound 151] | > 5.82 |
| CC(C)N(CC1CCN(Cc2ccc(Cl)cc2)CC1)C(=O)c1cc2ccccc2[nH]1 [compound 283] | < 5.00 |
| CC(C)N(CC1CCN(Cc2cccc(F)c2)CC1)C(=O)c1cc2ccccc2[nH]1 [compound 277] | < 5.00 |
| CCN(CC1CCCN(Cc2ccc(OC)cc2)C1)C(=O)c1cc2ccc(OC)cc2[nH]1 (stereo not shown) [Compound 162] | 5.40 to 5.82 |
| CCN(CC1CCCNC1)C(=O)c1cc2ccc(OC)cc2[nH]1 (stereo not shown) [compound 419] | < 5.00 |
| CCN(CC1CCCN(Cc2ccc(OC)cc2)C1)C(=O)c1cc2ccc(Cl)cc2[nH]1 (stereo not shown) [Compound 168] | > 5.82 |
| CCN(CC1CCN(C(C)(C)Cc2ccc(Cl)cc2)CC1)C(=O)c1cc2ccccc2[nH]1 [Compound 341] | > 5.82 |
| CN(CC1CCN(Cc2ccccc2F)CC1)C(=O)c1cc2ccccc2[nH]1 [compound 258] | < 5.00 |
| CCN(CC1CCCNC1)C(=O)c1cc2ccc(Cl)cc2[nH]1 (stereo not shown) [compound 423] | > 5.82 |
| CCN(CC1CCN(Cc2ccc(OC)cc2)CC1)C(=O)c1cc2cc(OC)ccc2[nH]1 [compound 404] | > 5.82 |
| O=C(NCC1CCN(Cc2cccc(F)c2)CC1)c1cc2ccccc2[nH]1 [compound 270] | < 5.00 |
| CCN(CC1CCCN(Cc2cc3ccccc3o2)C1)C(=O)c1cc2c(F)cc(F)cc2[nH]1 (stereo not shown) [Compound 205] | 5.40 to 5.82 |
| CCN(CC1CCCN(CCc2cccc(OC)c2)C1)C(=O)c1cc(C#N)c[nH]1 (stereo not shown) [Compound 242] | 5.40 to 5.82 |
| CCN(CC1CCCN(Cc2ccc(OC(F)F)cc2)C1)C(=O)c1cc2cc(OC(F)F)ccc2[nH]1 (stereo not shown) [Compound 178] | > 5.82 |

The remaining lines, values ahead:

| pIC50 | Structure (SMILES) |
| --- | --- |
| > 5.82 | CCN(CC1CCN(CC(F)(F)c2ccccc2)CC1)C(=O)c1cc2ccccc2[nH]1 [Compound 411] |
| 5.40 to 5.82 | CCN(CC1CCN(CC(F)(F)c2cccc(F)c2)CC1)C(=O)c1cc2ccccc2[nH]1 [Compound 410] |
| > 5.82 | COc1cccc(CCN2CCCC(CNC(=O)c3cc4ccccc4[nH]3)C2)c1 (stereo not shown) [Compound 125] |
| 5.40 to 5.82 | CCN(CC1CCCN(CCc2ccccc2)C1)C(=O)c1cc2ccccc2[nH]1 (stereo not shown) [Compound 216] |
| > 5.82 | CCN(CC1CCCN(CCc2ccc(OC)cc2)C1)C(=O)c1cc2ccccc2[nH]1 (stereo not shown) [Compound 127] |
| 5.40 to 5.82 | CCN(CC1CCCN(C(C)(C)c2cc3ccccc3o2)C1)C(=O)c1cc2ccccc2[nH]1 (stereo not shown) [compound 317] |
| 5.15 to 5.40 | CCN(CC1CCN(Cc2cccc(Cl)c2)CC1)C(=O)c1cc2ccccc2[nH]1 [compound 266] |
| 5.40 to 5.82 | CCN(CC1CCCN(CCc2ccccc2F)C1)C(=O)c1cc2ccccc2[nH]1 (stereo not shown) [Compound 123] |
| 5.15 to 5.40 | O=C(NCC1CCN(Cc2ccccc2)CC1)c1cc2ccccc2[nH]1 [compound 295] |
| < 5.00 | CN(CC1CCN(Cc2ccccc2Cl)CC1)C(=O)c1cc2ccccc2[nH]1 [compound 259] |
| 5.40 to 5.82 | CCN(CC1CCCN(CCc2ccc3c(c2)OCC3)C1)C(=O)c1cc2ccccc2[nH]1 (stereo not shown) [Compound 145] |
| 5.40 to 5.82 | CCN(CC1CCN(Cc2ccccc2)CC1)C(=O)c1cc2ccccc2[nH]1 [compound 291] |
| 5.40 to 5.82 | CCN(CC1CCCN(Cc2ccc(Cl)cc2)C1)C(=O)c1cc2cc(OCc3ccccc3)ccc2[nH]1 (stereo not shown) [Compound 173] |
| 5.15 to 5.40 | CCN(CC1CCN(Cc2ccccc2OC)CC1)C(=O)c1cc2ccccc2[nH]1 [compound 287] |
| 5.15 to 5.40 | CCN(CC1CCCN(CCc2cccc(OC(F)(F)F)c2)C1)C(=O)c1cc2cc(OC(F)(F)F)ccc2[nH]1 (stereo not shown) [Compound 179] |
| 5.40 to 5.82 | CCN(CC1CCCN(CCc2cccc(OC)c2)C1)C(=O)c1cc2ccccc2n1CC (stereo not shown) [Compound 238] |
| 5.40 to 5.82 | CCN(CC1CCCN(CCc2cccc(OC)c2)C1)C(=O)c1ccc(C)[nH]1 (stereo not shown) [Compound 246] |

| pIC50 | Structure (SMILES) |
| --- | --- |
| 5.40 to 5.82 | CCN(CC1CCCN(Cc2cc3ccccc3o2)C1)C(=O)c1cc2cc(OC)ccc2[nH]1 (stereo not shown) [Compound 203] |
| 5.40 to 5.82 | CCN(CC1CCN(Cc2ccccc2F)CC1)C(=O)c1cc2ccccc2[nH]1 [compound 268] |
| < 5.00 | COc1cccc(CCN2CCCC(CN(CC3CCCCC3)C(=O)c3cc4ccccc4[nH]3)C2)c1 (stereo not shown) [Compound 220] |
| 5.40 to 5.82 | CCN(CC1CCN(CCc2cccc(OC)c2)C1)C(=O)c1cc2ccccc2[nH]1 (stereo not shown) [Compound 223] |
| < 5.00 | CCN(CC1CCCN(Cc2ccc(C(=O)OC)cc2)C1)C(=O)c1cc2ccccc2[nH]1 (stereo not shown) [Compound 212] |
| 5.40 to 5.82 | CCN(CC1CCCN(Cc2cccc(C#N)c2)C1)C(=O)c1cc2ccccc2[nH]1 (stereo not shown) [Compound 133] |
| > 5.82 | COc1cccc(CCN2CCCC(CN(C(=O)c3cc4ccccc4[nH]3)C(C)C)C2)c1 (stereo not shown) [Compound 143] |
| < 5.00 | CN(CC1CCN(Cc2ccccc2)CC1)C(=O)c1cc2ccccc2[nH]1 [compound 263] |
| > 5.82 | CCN(CC1CCCN(Cc2cc3ccccc3o2)C1)C(=O)c1cc2ccccc2[nH]1 (stereo not shown) [Compound 206] |
| < 5.00 | CCN(CC1CCCN(CCc2cccc(OC)c2)C1)C(=O)c1cc2cc(OC)ccc2[nH]1 (stereo not shown) [Compound 244] |
| 5.40 to 5.82 | CCN(CC1CCCCN1CCc1cccc(OC)c1)C(=O)c1cc2ccccc2[nH]1 (stereo not shown) [Compound 224] |
| < 5.00 | CCN(CC1CCCN(CCc2cccc(OC(F)F)c2)C1)C(=O)c1cc2cc(OC(F)F)ccc2[nH]1 (stereo not shown) [Compound 180] |
| > 5.82 | CCN(CC1CCN(C(C)(C)c2cc3ccccc3o2)CC1)C(=O)c1cc2ccccc2[nH]1 [Compound 340] |
| > 5.82 | CCN(CC1CCN(C(C)(C)Cc2cccc(F)c2)CC1)C(=O)c1cc2ccccc2[nH]1 [Compound 330] |
| < 5.00 | COc1cccc(CCN2CCCC(CN(Cc3ccccc3)C(=O)c3cc4ccccc4[nH]3)C2)c1 (stereo not shown) [Compound 218] |
| > 5.82 | CCN(CC1CCCN(C2CCc3ccccc32)C1)C(=O)c1cc2ccccc2[nH]1 (stereo not shown) [Compound 207] |
| > 5.82 | CCN(CC1CCCN(CCc2cccc(Cl)c2)C1)C(=O)c1cc2ccccc2[nH]1 (stereo not shown) [Compound 141] |

Same assay, conditions: inhibition of TDP-43 aggregation; PC12 TDP-43^Q331K::eGFP, 1 hour pre-treatment, 15 μM sodium arsenite for 23 hours; 10-point dose response

| pIC50 | Structure (SMILES) |
| --- | --- |
| > 5.82 | CCN(CC1CCCN(C(C)(C)Cc2cccc(OC(F)F)c2)C1)C(=O)c1cc2cc(OC(F)F)ccc2[nH]1 (stereo not shown) [Compound 336] |
| 5.15 to 5.40 | CCN(CC1CCCN(C(C)(C)Cc2cccc(OC(F)(F)F)c2)C1)C(=O)c1cc2cc(OC(F)(F)F)ccc2[nH]1 (stereo not shown) [compound 316] |

| Structure (SMILES) | pIC50 |
| --- | --- |
| CCN(CC1CCN(CC(C)(C)c2cc3ccccc3o2)CC1)C(=O)c1cc2ccccc2[nH]1 [compound 318] | > 5.82 |
